# Patent US8168642B2, “Dihydropyrimidine compounds and their uses in preparation of medicaments for treating and preventing antiviral diseases” (Beijing Molecule Science and Technology Co., Ltd., priority 2006, dated 2012)
# Legend:
# [1] = tested on: HepG 2.2.15 cells; experiment: Cytotoxicity in HepG 2.2.15 cells (cell morphology under microscope after 8 days, Reed&Muench); format: cell-based; conditions: pathological change of cells after 8 days
# Method: (§1) The antiviral test was carried out in a 96-cell microtiter plate. The first column of the plate only contained a culture medium and HepG 2.2.15 cells, as a blank control.
# (§2) First, a stock solution ([…]) of a test compound was dissolved in DMSO, and further diluted with a culture medium for growth of HepG 2.2.15 cells. Usually, the compound of the present invention was transferred by suction at a test concentration of 100 μg/ml (the first test concentration) to each cell of the second column of the microtiter plate, and then diluted with the culture medium for growth plus 2% fetal bovine serum (25 μL), by 2 times once, up to 2^10 times at the maximum.
# (§3) Then, 225 μL of a suspension of HepG 2.2.15 cells in the culture medium for growth plus 2% fetal bovine serum (5×10^4 cells/ml) was added to each cell of the 96-cell microtiter plate.
# (§4) The test mixture was incubated under the conditions of 37° C., 5% CO2 for 4 days. Then, the supernatant was removed by suction, and to each cell 225 μL of a new-prepared culture medium for growth was added. Again, the compound of the present invention was added with a solution of 25 μL. The obtained mixture was further incubated for 4 days.
# Prior to collection of the supernatant for determination of the antiviral effect, the change in cytotoxicity of HepG 2.2.15 cells was investigated by using optical microscopic technique or biochemical detection method (e.g., Alamar Blue staining or Trypan Blue staining).
# Determination of Cytotoxicity
# The substance-induced change in cytotoxicity in HepG 2.2.15 cells or in inhibition of the cells could be determined by using, e.g., optical microscopic technique, and expressed by the change of cell morphology. Such substance-induced changes, e.g., cell lysis, cavity formation or change in cell morphology, in HepG 2.2.15 cells were apparent as compared to the untreated cells.
# Taking the observed pathological change of cells as index, the pathological change of cells was observed under microscope after 8 days, a complete destroy being indicated as 4; 75% being indicated as 3; 50% being indicated as 2; 25% being indicated as 1; and no pathological change being indicated as 0. The average extents of pathological change of cells and the inhibition percentages at various concentrations were calculated. According to Reed&Muench method, a half toxic concentration (TC50) and a maximum non-toxic concentration (TC0) were calculated.
# TC50 refers to the concentration of the compound of the present invention when 50% of cells have a similar morphology to the corresponding cells as a control.
# [2] = tested on: HBV DNA; experiment: Antiviral activity: inhibition of HBV DNA in supernatant of HepG 2.2.15 cells (dot blot hybridization); format: cell-based; conditions: Hepatitis B virus, HepG2.2.15, 192 h, 8 days incubation, HB-specific DNA in supernatant, read-out: IC50 (inhibitory effect on HBV DNA)
# Method: The antiviral effect of the compound of the present invention is determined according to the methods described by Sells, et al (M. A. Sells, M. L. Chen, G. Proc. Natl. Acad. Sci. 1987, 84, 1005-1009) and Korba, et al (B. E. Korba, J. L. Gerin Antiviral Research 1992, 19, 55-70).
# as §1, §2, §3, §4
# Thereafter, the supernatant was collected, and sucked in vacuum to a 96-cell dot blot chamber covered by nylon film (used in accordance with the instructions for use provided by the manufacturer).
# Determination of Antiviral Activity
# After the supernatant was transferred onto the nylon film of the dot blot device (see the contents hereinabove), the supernatant of HepG 2.2.15 cells was denaturated (1.5 M NaCl/0.5 M NaOH), neutralized (3 M NaCl/0.5 M Tris. HCl, pH 7.5) and washed (2×SSC). Then, the filter film was kept at 120° C. for 2-4 hours, whereby DNA was baked on the filter film.
# Usually, viral DNA of HepG 2.2.15 cells treated on the nylon film was detected by using a non-radioactive digoxigenin labeled HB-specific DNA probe. Wherein, each time the probe was labeled with digoxigenin, purified and hybridized according to the directions for use given by the manufacturer.
# Briefly, pre-hybridization and hybridization were conducted with 5×SSC, 1× blocking agent, 0.1% N-lauroyl sarcosine, 0.02% SDS and 100 μg sperm DNA of black carp. After pre-hybridization at 60° C. for 30 min, a specific hybridization (at 60° C. for 14 hr) was conducted with 20-40 ng/ml digoxigenin labeled denaturalized HBV specific DNA. Then, the film was washed, followed by HBV DNA detection with digoxigenin antibody.
# The immunology detection of digoxigenin labeled DNA was conducted according to the directions for use given by the manufacturer.
# Briefly speaking, the film was washed and pre-hybridized with a blocking agent (in accordance with the directions for use given by the manufacturer), and then hybridized with an anti-DIG antibody that had been previously coupled onto an alkaline phosphatase for 30 min. After washing, an alkaline phosphatase substrate CSPD was added, and cultured together with the filter for 5 min, and then wrapped in a plastic film, followed by further culturing at 37° C. for 15 min. The filter was exposed to X-ray, and the chemical luminous signal (culturing for 10 min to 2 hr according to the signal strength) of HB-specific DNA on the film was detected, whereby a half inhibitory concentration (IC50) was calculated.
# The half inhibitory concentration (IC50) refers to the concentration of the compound of the present invention which reduces the HB-specific band by 50% as compared with the untreated sample.
melting point [°C],SMILES,TD50 [1] [µM],IC50 [2] [nM]
124 to 127,CCOC(=O)C1=C(C)NC(c2nccn2C)=NC1c1ccccc1Cl (centres unmarked),,
> 230,COC(=O)C1=C(C)NC(c2cnc(Cl)s2)=NC1c1ccc(F)cc1Cl (centres unmarked),,
175 to 178,CCOC(=O)C1=C(C)NC(c2csc(C)n2)=NC1c1cccc(O)c1 (centres unmarked),,
,"CCOC(=O)C1=C(C)NC(c2c(F)cc(F)cc2F)=N[C@H]1c1ccc(F)cc1Cl [Example 62, ethyl 4-R-(2-chloro-4-fluorophenyl)-2-(2,4,6-trifluorophenyl)-6-methyl-1,4-dihydro-pyrimidin-5-carboxylate]",117.23,2010
140 to 142,CCOC(=O)C1=C(C)NC(c2cscn2)=NC1c1cccc(OC)c1 (centres unmarked),,
118 to 120,CCOC(=O)C1=C(C)NC(c2cscn2)=NC1c1ccc(F)cc1 (centres unmarked),,
143 to 144,CCOC(=O)C1=C(C)NC(c2csc(C)n2)=NC1c1cccc(Cl)c1 (centres unmarked),,
,"COC(=O)C1=C(C)NC(c2csc(C)n2)=NC1c1ccc(F)cc1Cl (centres unmarked) [Example 29, methyl 2-(2-methylthiazol-4-yl)-4-(2-chloro-4-fluorophenyl)-6-methyl-1,4-dihydro-pyrimidin-5-carboxylate]",56.34,8420
98 to 100,COC(=O)C1=C(C)NC(c2ncsc2Cl)=NC1c1ccc(F)cc1Cl (centres unmarked),,
169 to 171,CCOC(=O)C1=C(C)N(C(C)=O)C(c2csc(C)n2)=NC1c1ccc(Cl)cc1 (centres unmarked),,
175 to 178,COC(=O)C1=C(C)NC(c2cnc(Cl)s2)=NC1c1ccc(F)cc1 (centres unmarked),,
187 to 188,CCOC(=O)C1=C(C)N(C(C)=O)C(c2csc(C)n2)=NC1c1ccc(C)cc1 (centres unmarked),,
126 to 128,CCOC(=O)C1=C(C)NC(c2cscn2)=NC1c1ccccc1F (centres unmarked),,
213 to 216,CCOC(=O)C1=C(C)NC(c2cscn2)=NC1c1ccc(O)cc1 (centres unmarked),,
121 to 125,CCOC(=O)C1=C(C)NC(c2ncc[nH]2)=NC1c1ccccc1Cl (centres unmarked),,
123 to 125,CCOC(=O)C1=C(C)NC(c2csc(C)n2)=NC1c1ccc(F)cc1Cl (centres unmarked),,
107 to 111,CCOC(=O)C1=C(C)NC(c2cnc(C)s2)=NC1c1ccc(F)cc1Cl (centres unmarked),,
114 to 117,CCOC(=O)C1=C(C)NC(c2nccn2Cc2ccccc2)=NC1c1ccc(F)cc1Cl (centres unmarked),,

melting point [°C],SMILES,TD50 [1] [µM],IC50 [2] [nM]
208 to 210,CCOC(=O)C1=C(C)NC(c2csc(C)n2)=NC1c1ccc(O)cc1 (centres unmarked),,
130 to 131,CCOC(=O)C1=C(C)N(C(C)=O)C(c2cscn2)=NC1c1cccc(OC)c1 (centres unmarked),,
138 to 140,CCOC(=O)C1=C(C)N(C(C)=O)C(c2csc(C)n2)=NC1c1ccc(OC)cc1 (centres unmarked),,
159 to 162,CCOC(=O)C1=C(C)NC(c2cnc(Cl)s2)=NC1c1ccc(F)cc1Cl (centres unmarked),,
118 to 122,COC(=O)C1=C(C)NC(c2ncsc2Cl)=NC1c1ccc(F)cc1 (centres unmarked),,
105 to 108,CCOC(=O)C1=C(C)NC(c2cscn2)=NC1c1cccc(Cl)c1 (centres unmarked),,
127 to 130,CCOC(=O)C1=C(C)N(C(C)=O)C(c2csc(C)n2)=NC1c1cccc(F)c1 (centres unmarked),,
157 to 162,CCOC(=O)C1=C(C)NC(c2ncc[nH]2)=NC1c1ccc(F)cc1Cl (centres unmarked),,
114 to 116,CCOC(=O)C1=C(C)N(C(C)=O)C(c2csc(C)n2)=NC1c1cccc(OC)c1 (centres unmarked),,
118 to 120,CCOC(=O)C1=C(C)NC(c2cscn2)=NC1c1cccc(F)c1 (centres unmarked),,
149 to 152,CCOC(=O)C1=C(C)NC(c2ncsc2Cl)=NC1c1ccc(F)cc1Cl (centres unmarked),,
113 to 114,CCOC(=O)C1=C(C)N(C(C)=O)C(c2csc(C)n2)=NC1c1cccc(C)c1 (centres unmarked),,
95 to 110,CCOC(=O)C1=C(C)NC(c2csc(N)n2)=NC1c1ccc(F)cc1Cl (centres unmarked),,
140 to 142,CCOC(=O)C1=C(C)N(C(C)=O)C(c2csc(C)n2)=NC1c1ccccc1 (centres unmarked),,
180 to 183,CCOC(=O)C1=C(C)NC(c2cscn2)=NC1c1cccc(O)c1 (centres unmarked),,
140 to 142,CCOC(=O)C1=C(C)N(C(C)=O)C(c2csc(C)n2)=NC1c1ccc(F)cc1 (centres unmarked),,
155 to 158,CC1=C(C(=O)OC(C)C)C(c2ccc(F)cc2Cl)N=C(c2c(F)cccc2F)N1 (centres unmarked),,
133 to 134,CCOC(=O)C1=C(C)NC(c2cscn2)=NC1c1cccc(C)c1 (centres unmarked),,

SMILES,melting point [°C],TD50 [1] [µM],IC50 [2] [nM]
"CCOC(=O)C1=C(C)NC(c2cnc(N)s2)=NC1c1ccc(F)cc1Cl (centres unmarked) [Example 44, ethyl 2-(2-aminothiazol-5-yl)-4-(2-chloro-4-fluorophenyl)-6-methyl-1,4-dihydro-pyrimidin-5-carboxylate]",132 to 135,22.56,2690
"CCOC(=O)C1=C(C)NC(c2cnc(NC(C)=O)s2)=NC1c1ccc(F)cc1Cl (centres unmarked) [Example 43, ethyl 2-(2-acetylaminothiazol-5-yl)-4-(2-chloro-4-fluorophenyl)-6-methyl-1,4-dihydro-pyrimidin-5-carboxylate]",> 250,76.43,2290
"COC(=O)C1=C(C)NC(c2scnc2C)=NC1c1ccc(F)cc1Cl (centres unmarked) [Example 37, methyl 2-(4-methylthiazol-5-yl)-4-(2-chloro-4-fluorophenyl)-6-methyl-1,4-dihydro-pyrimidin-5-carboxylate]",145 to 147,101.42,14600
"COC(=O)C1=C(C)NC(c2c(F)cc(F)cc2F)=NC1c1ccc(F)cc1Cl (centres unmarked) [Example 59, methyl 2-(2,4,6-trifluorophenyl)-4-(2-chloro-4-fluorophenyl)-6-methyl-1,4-dihydro-pyrimidin-5-carboxylate]",112 to 114,>30.30,3390
"COC(=O)C1=C(C)NC(c2csc(Cl)n2)=NC1c1ccc(F)cc1Cl (centres unmarked) [Example 34, methyl 2-(2-chlorothiazol-4-yl)-4-(2-chloro-4-fluorophenyl)-6-methyl-1,4-dihydro-pyrimidin-5-carboxylate]",160 to 162,12.35,2080
"CCOC(=O)C1=C(C)NC(c2scnc2C)=NC1c1ccc(F)cc1Cl (centres unmarked) [Example 38, ethyl 2-(4-methylthiazol-5-yl)-4-(2-chloro-4-fluorophenyl)-6-methyl-1,4-dihydro-pyrimidin-5-carboxylate]",134 to 139,54.33,2220
"CCOC(=O)C1=C(C)NC(c2c(F)cccc2F)=NC1c1ccc(F)cc1Cl (centres unmarked) [Example 56, ethyl 2-(2,6-difluorophenyl)-4-(2-chloro-4-fluorophenyl)-6-methyl-1,4-dihydro-pyrimidin-5-carboxylate]",163 to 165,117.50,2030
